Experimental data from patent US20040142899A1, “Compositions and methods for enhanced biostability and altered biodistribution of oligonucleotides in mammals” (ISIS Pharmaceuticals, Inc., priority 1990, published 2004).

Legend:
RNA = experiment: Tm change due to pyrene conjugation, against RNA; type: binding; details: 100 mM Na+, 10 nM phosphate, 0.1 mM EDTA, pH 7, 4 μM strand concentration
Protocol: (§1) Changes in Tm due to pyrene conjugation were evaluated against both DNA and RNA. Tm was measured in 100 mM Na^+, 10 nM phosphate, 0.1 mM EDTA, pH 7 at 4 μM strand concentration.

DNA = experiment: Tm change due to pyrene conjugation, against DNA; type: binding; details: 100 mM Na+, 10 nM phosphate, 0.1 mM EDTA, pH 7, 4 μM strand concentration
Protocol: as §1

5′-GCG-TGU*-CTG-CG (5'-GCG-TGU*-CTG-CG; 2'-O-aminohexyl uridine linker, as printed in the source, key not given here) [Oligomer 52, U* from 2′-O-[hexyl-(Ω-N-phthalimido)amino]uridine amidite; amino linker]
Tm v. RNA (RNA): 55.5 °C | Tm v. DNA (DNA): 50.9 °C
